The test system of data set [1] is WT mouse spleen basophils (splenocytes). In words: CXCR4 expression on mouse spleen basophils ex vivo. The note with it: for CXCR4 expression on other WT splenocytes including T and B cells: data not shown; for CXCR4 expression on spleen WT basophils ex vivo: specific agonists, 24 hours ex vivo. It is filed as cell-based. The text has this:
(a) Ex vivo migration of basophils from whole WT or Lyn^−/− splenocytes to CXCL12. (b) CXCR4 expression levels on basophils from the indicated compartments in aged WT (n=16) and Lyn^−/− (n=14) animals. Data are normalized to the mean CXCR4 expression level of WT blood basophils. Statistical analyses placed directly above each bar compared the value for one given compartment to the blood compartment of the corresponding genotype. Statistical analyses between both genotypes for each compartment are also indicated. (c) Basophil number per peritoneum in young WT mice 24 hours after intraperitoneal (ip) injection of PBS or CXCL12 and compared to steady state (−) values (n=13/15/5, respectively). (d) CXCR4 expression levels on basophils from mesenteric lymph nodes (mLN) of young Lyn^−/− mice 24 hours after PBS or PGD2 ip injection normalized to PBS injected mice values' mean. (e) Basophil number in mLN of young Lyn^−/− mice 24 hours after ip injection of the indicated compound(s). (f) CXCR4 expression levels on spleen basophils from 15 weeks old WT mice incubated ex vivo for 24 hours with the indicated compound and normalized to the control values' mean. […] Basophils number and CXCR4 expression were assessed by flow cytometry. Statistical analyses were by unpaired t test with Welch's correction (a-e) and by paired Student t test (f).
(a-b) Relative CXCR4 expression levels on basophils (defined as CD19^−TCRβ^−CD3^−CD49b+FcεRIα^+CD123^+)CD45^lo and T cells (defined as CD45^+CD3^+TCRβ^+ cells) in splenocytes incubated 4 hours without (−) or with the indicated concentration of N6,2′-O-dibutyryl-adenosine 3′:5′-cyclic monophosphate (db-cAMP) or 1 μM PGD2 as determined by flow cytometry. Statistical analyses were by paired Student t tests. NS: not significant, *: P<0.05, **: P<0.01, ***: P<0.001. (c) Relative CXCR4 expression levels on spleen basophils (defined as in (a)) incubated 4 hours without (0) or with the indicated concentration (nM) of the indicated compound(s). DK-PGD2: 13,14-dihydro-15-keto-PGD2 (PTGDR-2 specific agonist); BW245c: 3-(3-Cyclohexyl-3-hydroxypropyl)-2,5-dioxo-(R*,S*)-(±)-4-imidazolineheptanioc acid (PTGDR-1 specific agonist) as determined by flow cytometry. Statistical analysis was by two-ways ANOVA followed by a Tukey's multiple comparisons test. (a-c) Data are normalized to control value mean (per group, n=4 to 8). Data are expressed as mean+s.e.m. All experiments were realized with splenocytes from 8-12 weeks old WT mice.
(§1) Human basophils and mouse splenocytes were cultured in culture medium (RPMI 1640 with Glutamax and 20 mM HEPES, 1 mM Na-pyruvate, non-essential amino acids 1× (all from Life Technologies, Saint-Aubin, France), 100 μg/ml streptomycin and 100 U/ml penicillin (GE Healthcare, Vélizy, France) and 37.5 μM β-mercaptoethanol (Sigma-Aldrich, MO)) supplemented with 20% heat-inactivated fetal calf serum at 37° C. and 5% CO2. 18 hours-long stimulation prior to migration assays were done in culture medium at 1×10^6 cells per mL by adding 1 nM of IL-3 (Peprotech), 1 μM of prostaglandin D2 (PGD2), 1 μM of the PTGDR-1 specific agonist BW245c, 1 μM of the PTGDR-2 specific agonist 13,14-dihydro-15-keto Prostaglandin D2 (DK-PGD2) (all from Cayman chemicals) or 5 ng/mL of anti-IgE (mouse anti-human IgE or rat anti-mouse IgE, both from Thermo Scientific). All cells were washed twice before any migration assay. Control conditions were always with the same vehicle concentration as stimulated conditions.

In a further data set the test system is Lyn−/− mice. In words: PGD2-induced basophil in vivo migration assay. The arrangement: species or system mouse.
The target of another data set is CXCR4 (Homo sapiens, UniProt P61073). The note with it: cited from earlier work.
Another data set relates to purified human basophils. In words: 18 hours stimulation of purified human basophils, marker expression and migration towards CXCL12. It is filed as cell-based.
Source text: Human basophils were purified to >95% by negative selection with the Human Basophils Enrichment kit (Stemcell Technologies, Grenoble, France) for culture, stimulation and chemotaxis experiments. In some chemotaxis experiments, human basophils were enriched to 3-5% by negative selection with the Human PE positive selection kit (Stemcell Technologies) by using a cocktail of PE-conjugated anti-CD3, CD19 and CD89 (BioLegend). These kits were used following manufacturer instructions.
as §1
Migration assays were performed in culture medium supplemented with 0.1% bovine serum albumin (BSA, Sigma-Aldrich) in Transwell 5 μm polycarbonate permeable support 6.5 mm inserts (Corning, N.Y., N.Y.) for 3 hours at 37° C. and 5% CO2 with 1×10^5 purified basophils or 2×10^5 enriched basophils at 1×10^6 cells per mL. Purified or enriched basophils from the upper and bottom chambers were counted at the end of the assay. Basophil content and phenotype was determined by flow cytometry by analyzing more than 100 basophils. Purification or enrichment of human basophils didn't show any difference in the measured migration for all tested chemokines. Migration was defined as the ratio between the number of basophils in the bottom chamber and the number of basophils in the upper plus the bottom chambers. Spontaneous migration was defined as the migration observed without any chemokine in the bottom chamber. Corrected migration was defined as the difference between specific and spontaneous migration. For migration assays the following concentrations (known to be optimal) were used for each compound: Human IL-3: 300 pM (Peprotech), human CCL3, CCL5, and CXCL12: 50 nM; CXCL2 (all from BioLegend) and PGD2 (Cayman chemicals): 100 nM. Migration to human CCL3, CCL5, CXCL2, and PGD2 was done in the presence of IL-3 at 300 pM in both chambers. Migration with IL-3 represents chemokinetism: IL-3 was added in both chambers to the same concentration and compared to the spontaneous migration observed without IL-3. Effects of 24 hours incubation with IL-3 or PGD2 (as described above) on basophil apoptosis were estimated by using the FITC Annexin V Apoptosis Detection Kit from BD Biosciences and used accordingly to manufacturer's instructions.

A further data set relates to 12 weeks old Lyn−/− mice. Nature of the data set: Acceleration of lupus-like disease development by repeated PGD2 injections.
Another data set concerns WT mice. Nature of the data set: CXCL12-induced basophil in vivo migration assay. More on the design: species or system mouse. The conditions noted are these: intraperitoneal injection, 24 hours.
Where [2] appears, read: ip every two days over ten days.

These results are taken from patent US11559513B2, “PTGDR-1 and/or PTGDR-2 antagonists for preventing and/or treating systemic lupus erythematosus” (INSTITUT NATIONAL DE LA SANTE ET DE LA RECHERCHE MEDICALE …, priority 2015, dated 2023).

Sequence of CXCR4 (P61073 whole entry, species assumed): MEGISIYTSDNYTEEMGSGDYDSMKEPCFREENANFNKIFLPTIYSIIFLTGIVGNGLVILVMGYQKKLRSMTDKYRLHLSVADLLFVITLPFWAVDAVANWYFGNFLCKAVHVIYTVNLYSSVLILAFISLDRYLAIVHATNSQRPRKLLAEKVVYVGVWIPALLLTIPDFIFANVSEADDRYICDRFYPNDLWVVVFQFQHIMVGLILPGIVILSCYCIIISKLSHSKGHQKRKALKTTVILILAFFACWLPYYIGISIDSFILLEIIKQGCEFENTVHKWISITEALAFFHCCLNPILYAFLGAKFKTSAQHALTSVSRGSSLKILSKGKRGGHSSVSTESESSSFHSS
Source text for 12 weeks old Lyn−/− mice: (a,b) Proportion of basophils (CD19^−TCRβ^−CD49b^+FcεRIα^+CD123^+)CD45^lo) among singlets living CD45^+ cells in mesenteric (a) and other (cervical, brachial and inguinal) lymph nodes (b) from 10 to 12 weeks-old Lyn^−/− mice injected over ten days with PBS (open circles) or PGD2 alone (open squares), and PGD2 injected and basophil depleted (MAR-1) (open diamonds) or not (IgG) (open triangles) as described in the methods. (c) IA-IE expression levels on LN basophils from mice as in (b). […] (d,e) Proportion of short lived plasma cells CD19^+CD138^+ among singlets living CD45^+ cells in spleen (d) and lymph nodes (e) in the same mice as in (b). (f) Representative immunofluorescence staining for C3 and IgG deposits in kidneys from mice as indicated in (b) (scale bar=1 mm) and their corresponding quantifications in PBS (n=3), PGD2 (n=4), PGD2+control IgG (n=3) and PGD2+MAR-1 (n=3) injected mice. (g) Fold increase in urine albumin/creatinine ratio before and after PBS or PGD2 10 days-long treatment. (a-e) Basophil, plasma cell numbers and IA-IE expression levels were assessed by flow cytometry. (a-g) Data are expressed as means±s.e.m. […] One representative out of three independent experiments is shown.
For acceleration of disease development by PGD2 injections, 12 weeks old Lyn^−/− mice were injected ip with 20 nmoles of PGD2 or vehicle in PBS, every two days for 10 days, for a total of 6 injections. Mice were analyzed the day following the last injection. […] Cell viability was assessed by the utilization of Ghost Dye Violet 510 (Tonbo, San Diego, Calif.).
Quantification of C3 and IgG deposits was realized by using ImageJ software (v1.49p, NIH, USA). A minimum of 20 glomeruli was quantified per kidney. For assessment of kidney function the albumin/creatinine ratio (ACR) was determined. Urine was collected from each mouse before and after treatment. The albumin concentration was measured with a mouse albumin ELISA (Bethyl laboratories, Montgomery, Tex.). A creatinine assay (R&D systems, Minneapolis, Minn.) was used to determine urine creatinine concentrations. Results are expressed as a fold increase corresponding to the ratio of the ACR after/before treatment.

Consider `O=C(O)CCCCCCC1C(=O)NC(=O)N1CCC(O)C1CCCCC1` (racemic) [BW245c, 3-(3-Cyclohexyl-3-hydroxypropyl)-2,5-dioxo-(R*,S*)-(±)-4-imidazolineheptanioc acid], for which, in data set [1], the “CXCR4 expression on other WT splenocytes including T and B cells” value was “significant but much lower increase”; the “CXCR4 expression on spleen WT basophils ex vivo” value was “up-regulation”.

On to `c1cc(CN2CCCNCCNCCCNCC2)ccc1CN1CCCNCCNCCCNCC1` [AMD3100], for which, in the data set on Lyn−/− mice (co-injection with PGD2, ip), the “PGD2-induced basophil recruitment in SLOs and peritoneum” value is listed as “completely abolished”. Also, the “known effects of CXCR4 antagonism” value on CXCR4 is “induce a release of hematopoietic stem cells and interfere with homeostatic functions”.

For the molecule `CCCCCC(=O)CCC1C(=O)CC(O)C1C/C=C\CCCC(=O)O` (stereo not shown) [DK-PGD2, 13,14-dihydro-15-keto-PGD2], in data set [1], the “CXCR4 expression on other WT splenocytes including T and B cells” value is recorded as “significant but much lower increase”; the “CXCR4 expression on spleen WT basophils ex vivo” value was “up-regulation”.

Turning to `CCCCC[C@H](O)/C=C/[C@H]1C(=O)C[C@H](O)[C@@H]1C/C=C\CCCC(=O)O` [PGD2, 9α,15S-dihydroxy-11-oxo-prosta-5Z,13E-dien-1-oic acid], in the data set with Lyn−/− mice (i.p. injection, 24 hours), the “CXCR4 expression on mLN basophils” value is given as “increased”; the “basophil accumulation in SLOs and peritoneum” value is “drove their accumulation”. In addition, the “peripheral basopenia compared to steady state” value in the data set on Lyn−/− mice (ip injection, data not shown) is listed as “significant, but transient”. Further, the “CXCR4 externalization by T cells” value in data set [1] (1 μM, 4 hours ex vivo) is “unable”. Further, the basophil apoptosis entry in the data set with purified human basophils (1 μM, data not shown) is listed as “without inducing”. Moreover, in the data set on purified human basophils (18 hours priming, 1 μM PGD2 or sub-optimal anti-IgE), the “CXCR4 expression on basophils” value was “enhanced”. Also, the PTGDR-2 internalization result in the data set on purified human basophils (18 hours, 1 μM, data not shown) is given as “induced”. For the same molecule, in the data set on purified human basophils (PGD2 priming, data not shown), the “FcεRIα expression on basophil surface” value was “slight increase”. For the same molecule, the “migration towards CXCL12” value in the data set with purified human basophils (after 18 hours priming) is reported as “enhanced”. The “CXCR4 surface expression of other immune cell types” value in the data set on 12 weeks old Lyn−/− mice (data not shown) is “didn't show any significant increase”. The albuminuria entry with 12 weeks old Lyn−/− mice (end of protocol, versus PBS-injected) is given as “increased albuminuria”. In the data set on 12 weeks old Lyn−/− mice (setting [2]), the “CD19+CD138+ plasma cells in SLOs” value is “increased proportion”; the “IA-IE expression on basophils” value was “increased”; the “basophil accumulation in SLOs” value is “accumulated systemically”; the “immune complexes in the kidney (C3 and IgG deposition)” value was “increased deposition”. For the same molecule, the “basophil CXCR4 expression levels” value in the data set with 12 weeks old Lyn−/− mice (ip every two days over ten days, data not shown) was “increased”.

For `CCCC(=O)Nc1ncnc2c1ncn2[C@@H]1O[C@@H]2COP(=O)(O)O[C@H]2[C@H]1OC(=O)CCC` [db-cAMP, N6,2′-O-dibutyryl-adenosine 3′:5′-cyclic monophosphate], in data set [1] (4 hours ex vivo), the “CXCR4 externalization by mouse WT spleen basophils” value was “externalized” and the “sensitivity of basophils versus T cells to the compound (CXCR4 externalization)” value was determined as 100 fold.

With “CXCL2: chemokine known to have an effect on basophils”, the “increased CXCR4 externalization ex vivo as PGD2 did” value with purified human basophils (data not shown) is “None”.

“CXCL12: C—X—C motif Ligand 12, chemokine; murine CXCL12 injected ip”: in the data set on WT mice, the “in vivo basophil migration to the injection site and draining mesenteric lymph nodes” value is on record as “induced”.

B1: CCL3: chemokine known to have an effect on basophils (protein, UniProt P10147 24-92, looked up)
C-C motif chemokine 3: SLAADTPTACCFSYTSRQIPQNFIADYFETSSQCSKPGVIFLTKRSRQVCADPSEEWVQKYVSDLELSA
Regarding B1, the “increased CXCR4 externalization ex vivo as PGD2 did” value in the data set on purified human basophils (data not shown) is “None”.

B2: CCL5: chemokine known to have an effect on basophils (protein, UniProt P13501 24-91, looked up)
C-C motif chemokine 5: SPYSSDTTPCCFAYIARPLPRAHIKEYFYTSGKCSNPAVVFVTRKNRQVCANPEKKWVREYINSLEMS
Regarding B2, the “increased CXCR4 externalization ex vivo as PGD2 did” value in the data set on purified human basophils (data not shown) was “None”.
